According to patent US5670138A, “Mouth-care products” (Sara Lee/DE N.V., priority 1994, dated 1997):

Columns and labels:
[1] = system: acid phosphatase and pyrophosphatase; test: Inhibition of the enzymatic hydrolysis of pyrophosphate; assay type: biochemical; settings: 480 ppm pyrophosphate, tris buffer pH=7
Protocol: To a solution, 3 ml, containing 480 ppm of pyrophosphate, various polymers, as defined in the table, optionally in combination with fluoride, and tris buffer (pH=7), 6*10^-2 U acid phosphatase and 4*10^-2 U pyrophosphatase ware added. The enzymatic hydrolysis of pyrophosphatase was determined by the withdrawal of 0.5 ml samples and measuring the orthophosphate concentration (V/MO complex).

[2] = Triclosan concentration in supernatant with polymer; settings: 3000 ppm triclosan, no polymer
Protocol: Polymer and 3000 ppm bactericide (Bromochlorophene (BCP) or triclosan) were solved in distilled water at pH=12.5 (NaOH). […] The bactericide concentration was determined at pH 8, 7 or 6 in the supernatant solution by UV/VIS at pH=12.5 and 37° C.

Row | SMILES | ppm orthophosphate after 60 min [1] [ppm] | ppm orthophosphate after 120 min [1] [ppm] | ppm orthophosphate after 240 min [1] [ppm] | ppm triclosan in supernatant at pH 6 [2] [ppm] | ppm triclosan in supernatant at pH 7 [2] [ppm] | ppm triclosan in supernatant at pH 8 [2] [ppm]
1 | [F-].[Na+] [NaF, sodium fluoride] | 1.8 | 3.9 | 9.6 | – | – | –
2 | Oc1cc(Cl)ccc1Oc1ccc(Cl)cc1Cl [triclosan, 5-chloro-2-(2,4-dichlorophenoxy)phenol] | – | – | – | 7 ± 3 | 15 ± 1 | 30 ± 2
